Tests used:
[1] = biological target: T1, purified recombinant mouse ENPP1 (Mus musculus, UniProt P06802); assay: ENPP1 activity assay using TMP-pNP as a substrate; assay type: biochemical; conditions: TMP-pNP 2 μM, mouse ENPP1 0.5 nM, pH 7.5, room temperature
T1 sequence (P06802 1-906): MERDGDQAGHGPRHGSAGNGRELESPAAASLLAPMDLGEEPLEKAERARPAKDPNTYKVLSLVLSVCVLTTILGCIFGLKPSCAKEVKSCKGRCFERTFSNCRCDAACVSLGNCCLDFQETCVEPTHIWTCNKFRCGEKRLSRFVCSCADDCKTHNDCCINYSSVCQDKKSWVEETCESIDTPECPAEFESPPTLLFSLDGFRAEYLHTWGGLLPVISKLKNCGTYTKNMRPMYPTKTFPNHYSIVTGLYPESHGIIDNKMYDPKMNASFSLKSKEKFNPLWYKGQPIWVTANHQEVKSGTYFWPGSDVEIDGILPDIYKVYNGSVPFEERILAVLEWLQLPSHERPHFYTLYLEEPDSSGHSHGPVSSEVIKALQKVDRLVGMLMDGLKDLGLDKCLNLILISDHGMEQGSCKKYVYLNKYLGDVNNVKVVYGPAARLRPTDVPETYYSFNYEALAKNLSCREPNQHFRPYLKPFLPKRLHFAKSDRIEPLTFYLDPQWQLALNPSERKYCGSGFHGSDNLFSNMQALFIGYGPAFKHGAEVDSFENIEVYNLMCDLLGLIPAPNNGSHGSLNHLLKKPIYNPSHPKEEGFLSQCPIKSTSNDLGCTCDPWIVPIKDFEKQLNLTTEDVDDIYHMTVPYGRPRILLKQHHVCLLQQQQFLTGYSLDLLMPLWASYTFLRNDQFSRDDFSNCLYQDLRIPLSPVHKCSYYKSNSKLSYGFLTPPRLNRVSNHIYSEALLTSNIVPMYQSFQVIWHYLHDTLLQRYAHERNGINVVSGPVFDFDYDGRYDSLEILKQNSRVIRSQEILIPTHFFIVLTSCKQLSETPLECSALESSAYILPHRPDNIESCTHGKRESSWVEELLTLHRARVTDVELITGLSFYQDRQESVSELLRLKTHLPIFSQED
Method: Selected compounds of Table 1, Table 2 and other derivatives were prepared and assessed in an ENPP1 activity assay using thymidine monophosphate paranitrophenol (TMP-pNP) as a substrate. Enzyme reactions were prepared with TMP-pNP (2 μM), 5-fold dilutions of ENPP1 inhibitor, and purified recombinant mouse ENPP1 (0.5 nM) in 100 mM Tris, 150 mM NaCl, 2 mM CaCl2, 200 μM ZnCl2, pH 7.5 at room temperature. Reaction progress was monitored by measuring absorbance at 400 nm of paranitrophenolate produced by the reaction for 20 minutes.

[2] = biological target: T1, purified recombinant mouse ENPP1; assay: ENPP1 enzyme activity assay using 32P cGAMP as a substrate (TLC); assay type: biochemical
Method: Compounds were also assessed in an ENPP1 enzyme activity assay using ^32P cGAMP as a substrate. Radiolabeled ^32P cGAMP was synthesized by incubating unlabeled ATP (1 mM) and GTP (1 mM) doped with ^32P-ATP with 2 μM purified recombinant porcine cGAS in 20 mM Tris pH 7.5, 2 mM MgCl2, 100 μg/mL herring testes DNA) overnight at room temperature, and the remaining nucleotide starting materials were degraded with alkaline phosphatase for 4 h at 37° C. The probe ^32P-cGAMP (5 μM) was incubated with purified recombinant mouse ENPP1 (20 nM) or whole cell lysates in 100 mM Tris, 150 mM NaCl, 2 mM CaCl2, 200 μM ZnCl2, pH 7.5 at room temperature for 5 hours. To generate enzyme inhibition curves, 5-fold dilutions of ENPP1 inhibitor were included in the reaction. […] Plates were exposed on a phosphor screen (Molecular Dynamics) and imaged on a Typhoon 9400 and the ^32P signal was quantified using ImageJ.

[3] = system: human CD14+ monocytes
Method: Primary human peripheral blood mononucleocyte cells (PBMCs) were isolated by subjecting enriched buffy coat from whole blood to a Percoll density gradient. CD14^+ monocytes were isolated using CD14^+ MicroBeads (Miltenyi). CD14^+ monocytes were cultured in RMPI supplemented with 2% human serum and 100 U/mL penicillin-streptomycin. […] 24-26 hours following supernatant transfer, total RNA was extracted using Trizol (Thermo Fisher Scientific) and reverse transcribed with Maxima H Minus Reverse Transcriptase (Thermo Fisher Scientific). Real-time RT-PCR was performed in duplicate with AccuPower 2X Greenstar qPCR Master Mix (Bioneer) on a 7900HT Fast Real-Time PCR System (Applied Biosystems). Data were normalized to CD14 expression for each sample. Fold induction was calculated using ΔΔCt.
Supernatant from these cells was transferred to primary CD14^+ human PBMCs. IFNB1 mRNA levels were normalized to CD14 and the fold induction was calculated relative to untreated CD14^+ cells.

[4] = system: 4T1 tumor; assay: Tumor-associated dendritic cells in mouse 4T1 tumor model (FACS); conditions: intratumoral 100 μL of 1 mM compound 1
Method: Seven- to nine-week-old female Balb/c mice (Jackson Laboratories) were inoculated with 1×10^6 4 T1-luciferase tumor cells suspended in 50 μL of PBS into the mammary fat pad. […] Anaesthetized animals were shielded with a 3.2 mm lead shield with a 15×20 mm aperture where the tumor was placed. […] On the next day, the tumor was extracted and incubated in RPMI+ 10% FBS with 20 μg/mL DNase I type IV (Sigma-Aldrich) and 1 mg/mL Collagenase from Clostridium histolyticum (Sigma-Aldrich) at 37° C. for 30 min. […] Cells were stained with Live/Dead fixable near-IR dead cell staining kit (Thermo Fisher Scientific), Fc-blocked for 10 min using TruStain fcX and subsequently antibody-stained with CD11c, CD45, and I-A/I-E (all Biolegend). Cells were analyzed using an SH800S cell sorter (Sony) or an LSR II (BD Biosciences).
Mean±SEM (n=2). **P=0.004 (Student's t test).

[5] = system: 4T1 tumor; assay: 4T1 tumor model: IR with compound 1, cGAMP and/or anti-CTLA-4, tumor volume and survival; assay type: in vivo, mouse; conditions: 20 Gy IR, single agent intratumorally on day 2, 4 and 7 after IR (100 μL of 100 μM compound 1 or 10 μg cGAMP)
Method: Tumor volumes were recorded every other day.

[6] = 32P-cGAMP 5 μM, mouse ENPP1 20 nM, pH 7.5, room temperature, 5 hours, read-out: IC50 values (cGAMP; μM)

Compound	IC50 [1] [µM]	other results
COc1ccc2c(N3CCC(CCP(=O)(O)O)CC3)nc(C)nc2c1 [Compound 12]	0.005 to 0.05	IC50 [2, 6]: 0.05 to 0.5 µM
COc1cc2ncnc(N3CCC(CP(=O)(O)O)CC3)c2cc1OC [Compound 88]	0.05 to 0.5	–
Nc1ccc2c(N3CCC(CCP(=O)(O)O)CC3)ncnc2c1 [Compound 30]	0.05 to 0.5	–
COc1cc2ncnc(N3CCC(CC(=O)NO)CC3)c2cc1OC [Compound 61]	0.5 to 5	–
COc1ccc(OC)c2c(N3CCC(CCP(=O)(O)O)CC3)ncnc12 [Compound 16]	0.5 to 5	–
COc1ccc2c(N3CCC(CCP(=O)(O)O)CC3)nc(/C=C/c3cccnc3)nc2c1 [Compound 18]	< 0.005	IC50 [2, 6]: 0.05 to 0.5 µM
COc1cc2ncnc(N3CCC(COP(O)(O)=S)CC3)c2cc1OC [Compound 67]	0.005 to 0.05	–
O=P(O)(O)CCC1CCN(c2ncnc3ccc(O)cc23)CC1 [Compound 23]	0.5 to 5	–
COc1cccc2c(N3CCC(CCP(O)(O)=S)CC3)ncnc12 [Compound 92]	< 0.005	–
COc1cc2ncnc(N3CCC(CCP(O)(O)=S)CC3)c2cc1OC [Compound 83]	0.05 to 0.5	–
COc1cc2ncnc(N3CCC(CCP(=O)(O)O)CC3)c2cc1OC [Compound 1]	–	extracellular cGAMP levels ([3]; 293T cGAS ENPP1low cells with transient overexpression of ENPP1): rescued extracellular cGAMP levels; CD14+ IFNB1 expression ([3]; supernatant of ENPP1-overexpressing 293T cGAS ENPP1low cells transferred to CD14+ monocytes): induced CD14^+ IFNB1 expression; tumor associated CD11c+ population ([4]; tumors pretreated with 20 Gy IR): increased the tumor associated CD11c^+ population; tumor-associated leukocyte compositions ([4]; without IR, vs PBS control): did not change tumor-associated leukocyte compositions compared to the PBS control
COc1ccc2c(N3CCC(CCP(=O)(O)O)CC3)ncnc2c1OC [Compound 22]	0.05 to 0.5	–
COc1cc2ccnc(N3CCC(CCP(=O)(O)O)CC3)c2cc1OC [Compound 38]	0.05 to 0.5	–
O=P(O)(O)CCC1CCN(c2ncnc3cc(Cl)ccc23)CC1 [Compound 84]	0.05 to 0.5	–
COc1ccc2ncnc(N3CCC(CCP(=O)(O)O)CC3)c2c1 [Compound 19]	0.005 to 0.05	–
COc1cc2ncnc(N3CCC(CCB(O)O)CC3)c2cc1OC [Compound 87]	0.05 to 0.5	–
Nc1nc2c(ncn2[C@@H]2O[C@@H]3COP(=O)(O)O[C@H]4[C@@H](O)[C@H](n5cnc6c(N)ncnc65)O[C@@H]4COP(=O)(O)O[C@@H]2[C@@H]3O)c(=O)[nH]1 [cGAMP, cyclic guanosine monophosphate-adenosine monophosphate]	–	tumor shrinkage effect over IR treatment [5]: had no effect over IR treatment
COc1cc2nccc(N3CCC(CCP(=O)(O)O)CC3)c2cc1OC [Compound 71]	0.05 to 0.5	–
COc1cc2ncnc(N3CCN(C(=O)CP(=O)(O)O)CC3)c2cc1OC [Compound 75]	0.05 to 0.5	IC50 [2, 6]: 0.5 to 5 µM
Cc1cnc(C)n1-c1cc(N2CCN(CCP(=O)(O)O)CC2)ncn1 [Compound 103]	0.05 to 0.5	–
COc1cc2ncnc(N3CCC(COP(=O)(O)O)CC3)c2cc1OC [Compound 60]	0.05 to 0.5	–

Further lines, with some results ahead:

IC50 [1] [µM]	Compound	other results
0.05 to 0.5	COc1cc(OC)c2ncnc(N3CCC(CCP(=O)(O)O)CC3)c2c1 [Compound 7]	–
< 0.005	COc1cccc2c(N3CCC(CCP(=O)(O)O)CC3)ncnc12 [Compound 76]	IC50 [2]: 0.005 to 0.05 µM
> 5	CC(C)Oc1ccc2c(N3CCC(CCP(=O)(O)O)CC3)ncnc2c1 [Compound 11]	–
0.005 to 0.05	COc1ccc2c(N3CCC(CCP(=O)(O)O)CC3)ncnc2c1OC [Compound 25]	–
0.05 to 0.5	Cc1nccn1-c1cc(N2CCC(CCP(=O)(O)O)CC2)ncn1 [Compound 93]	–
0.005 to 0.05	COc1cc2ncnc([C@H]3CC[C@H](CCP(=O)(O)O)CC3)c2cc1OC [Compound 82]	–
< 0.005	COc1ccc2c(N3CCC(CCP(=O)(O)O)CC3)ncnc2c1 [Compound 10]	IC50 [2, 6]: 0.05 to 0.5 µM
0.5 to 5	O=P(O)(O)CCC1CCN(c2ncnc3cc4c(cc23)OCCO4)CC1 [Compound 13]	–
0.5 to 5	O=P(O)(O)CCC1CCN(c2ncnc3cccc(F)c23)CC1 [Compound 70]	–
< 0.005	COc1cccc2c(N3CCC(COP(=O)(O)O)CC3)ncnc12 [Compound 86]	–
> 5	COc1ccc2c(N3CCN(CCP(=O)(O)O)CC3)ncnc2c1 [Compound 42]	–
0.005 to 0.05	COc1cc2ncnc([C@H]3CC[C@@H](CCP(=O)(O)O)CC3)c2cc1OC [Compound 81]	–
> 5	O=P(O)(O)CCC1CCN(c2ncnc3nc[nH]c23)CC1 [Compound 68]	–
0.05 to 0.5	O=P(O)(O)CCC1CCN(c2ncnc3cc(O)ccc23)CC1 [Compound 5]	–
> 5	CNC(=O)NCC1CCN(c2ncnc3cc(OC)c(OC)cc23)CC1 [Compound 73]	–

Source: US20230190927A1, “ENPP1 INHIBITORS AND METHODS OF MODULATING IMMUNE RESPONSE” (Angarus Therapeutics, Inc., priority 2020, published 2023)
